Experimental data from patent US12201690B2, “Formulations/compositions comprising ibrutinib” (Janssen Pharmaceutica NV, priority 2018, dated 2025).

Legend:
[1] = 1M ASAP (Accelerated Stability Assessment Program) stability study; type: physicochemical; conditions: samples stored for 1 month at 60° C.
Protocol: The new 25 concepts were screened in a 1M ASAP (Accelerated Stability Assessment Program) stability study (5, 40 and 60° C. storage conditions), in a 6M lab stability study and in PET tests.
The Results of the 6-Month (6M) Lab Stability

[2] = Microscope search for new needle-shaped (co-)crystals in stored/stressed suspensions; type: physicochemical; conditions: benzyl alcohol as preservative
Excerpt: As consequence of the increased paraben concentration, a crystallization issue has been observed with the suspension Composition 2 after a few months in stability at different storage conditions. […] By IR, Raman and MS analysis, the new needle crystals are characterized as potentially being co-crystals of the API and Parabens.
Between the acceptable concepts 13 to 20, after 6M storage in cyclic conditions, only in the concept containing benzoic acid as an incipient was new crystallization observed. The other samples were stable. • All concepts were physically stressed by rolling.
All suspension concepts were rolled into a glass vial, closed with a child resistant stopper, at room temperature, horizontally, at a speed of 25 rpm, for 1M. […] Between these concepts, only concepts 18, 19 and 20 were stable.
Some concepts were spiked to try to induce a rapid co-crystallization. Concepts containing Methyl and Ethyl paraben, were spiked with few granules of powder of co-crystals of API/Methyl Paraben and API/Et Paraben.

Row | reduction in preservative assay [1] | (co-)crystallization [2] | SMILES
1 | about 15% | – | C/C=C/C=C/C(=O)O [Sorbic acid]
2 | 1% | not observed | OCc1ccccc1 [benzyl alcohol]

Row | SMILES | reduction in preservative assay [1] | (co-)crystallization [2]
3 | O=C(O)c1ccccc1 [benzoic acid] | about 5% | –
